Experimental findings from paper PMC11749085, “Paeoniflorin relieves arterial stiffness induced by a high-fat/high-sugar diet by disrupting the YAP-PPM1B interaction” (Life Medicine, 2023) are described below.

For experiment [1], the target named is T1, LgBiT-YAP-CC / SmBiT-PPM1B (Homo sapiens, UniProt P46937).
T1 construct: gene YAP1; with Protein phosphatase 1B
The experiment in a line: NanoBiT split-luciferase protein-protein interaction assay in HeLa cells. It is filed as cell-based.

The next experiment addresses T2, YAP-CC domain (Homo sapiens, UniProt P46937).
T2 construct: gene YAP1
The experiment in a line: biolayer interferometry. Particulars: read-out: affinity. It is filed as binding. From the text: biolayer interferometry on YAP-CC domain | a binding between paeoniflorin and the YAP-CC domain with an affinity of […]
Background: In BLI a coated tip is dipped into the sample, and binding shifts an interference pattern.

T2 sequence (P46937 298-328): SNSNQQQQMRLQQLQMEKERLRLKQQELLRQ
T1 sequence (P46937 298-328): as above
T1 sequence (O75688 2-479 partner): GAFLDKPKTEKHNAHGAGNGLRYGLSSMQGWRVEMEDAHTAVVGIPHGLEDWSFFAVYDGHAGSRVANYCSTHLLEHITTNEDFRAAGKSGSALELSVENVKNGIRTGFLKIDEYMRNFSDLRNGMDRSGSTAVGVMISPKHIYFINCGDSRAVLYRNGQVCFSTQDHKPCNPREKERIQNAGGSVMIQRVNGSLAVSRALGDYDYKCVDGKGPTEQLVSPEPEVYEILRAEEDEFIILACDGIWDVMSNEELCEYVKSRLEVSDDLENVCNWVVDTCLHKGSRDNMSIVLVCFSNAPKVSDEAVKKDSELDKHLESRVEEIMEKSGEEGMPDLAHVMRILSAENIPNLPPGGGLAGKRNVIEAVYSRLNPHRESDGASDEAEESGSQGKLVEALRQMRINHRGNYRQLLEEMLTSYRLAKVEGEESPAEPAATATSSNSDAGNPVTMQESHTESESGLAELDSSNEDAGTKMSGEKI

The term IC50 denotes the concentration at which inhibition is half-maximal. A lower IC50 goes with inhibition by little substance. In experiment [1], `C[C@@]12C[C@@]3(O)O[C@@H](O1)[C@]1(COC(=O)c4ccccc4)[C@H]3C[C@@]12O[C@@H]1O[C@H](CO)[C@@H](O)[C@H](O)[C@H]1O` [paeoniflorin] showed a 50% inhibitory concentration (IC50) of 4.8 µM. Besides, on YAP-CC domain, the Kd is 40.5 µM.
